# Test results published in US5321030A, “Creatine analogs having antiviral activity” (priority 1991, dated 1994).
# Several values for one entry are separate records, joined by “and”; a condition that tells them apart may be missing. Equal values may be shown once. Read-outs that look alike come from different tables or passages of the source.
# Assays:
# [1] = Cytotoxicity in plaque reduction assay, CV-1 cells; format: cell-based, African Green Monkey; conditions: monkey, Table 9B, read-out: CD50 (the source's name)
# [2] = system: HCMV, strain C8704 (DHPG resistant); experiment: microbe, parasite or virus in culture; format: cell-based, Human Cytomegalovirus; parameters: TI50 (CD50 ÷ ED50): unit not given beside the values; conditions: for # Plaques: virus control 91.0 ± 8.4
# [3] = system: Vesicular stomatitis virus (VSV), Indiana strain; format: cell-based; conditions: 62.5 μg/ml-4 mg/ml; Vero cells and BHK-21 cells; scale 0-4; no drug controls 4.0
# [4] = system: HSV-2; experiment: Cytopathic effect (CPE) assay, HSV-2
# [5] = system: HCMV, strain AD-169; experiment: Plaque reduction assay, HCMV strain AD-169; format: cell-based, Human Cytomegalovirus; parameters: TI50 (CD50 ÷ ED50): unit not given here; conditions: for EC50: read-out: ED50 (the source's name)
# [6] = system: Vero cells; conditions: monkey
# [7] = system: HSV-1; experiment: Cytopathic effect (CPE) assay, HSV-1
# [8] = system: Herpes Simplex Virus, Type 1, strain BW10168 (TK-); experiment: microbe, parasite or virus in culture; format: cell-based; parameters: TI50 (CD50 ÷ ED50): unit not given beside the values; conditions: for Average CPE: virus controls 4.0; for EC50: Human alphaherpesvirus 1, Vero
# [9] = system: Influenza A/Port Chalmers/1/73 (H3 N2); experiment: CPE-reduction assay, Influenza A in MDCK cells; format: cell-based; conditions: 62.5 μg/ml-4 mg/ml
# [10] = system: HSV-1; experiment: Plaque assay, plaquing efficiency of HSV-1 in serum-starved Vero cells; format: cell-based, Herpes Simplex Type I (HSV-1)
# Method: Plaque assays were performed on confluent, serum-starved monolayers of Vero cells in 100 mm dishes (Corning). Growth medium was removed by aspiration and 10 ml of low serum media was added. Monolayers were grown in this medium for 5 days. […] After incubation, the inoculum was removed by aspiration and replaced with 2 ml of agarose-medium maintained at 42° C. The agarose-medium overlay contained a fresh 1:1 mixture of: […] A plaque assay was used to confirm the antiviral activity of cyclocreatine detected in the cytopathogenicity studies described above. Vero cells were grown in 100 mm dishes and were serum-starved. Each dish, with the exception of uninfected controls, was inoculated with HSV-1 virus and incubated with various concentrations of cyclocreatine until plaques appeared in the plates exposed to virus alone.
# [11] = molecular target: creatine kinase (Oryctolagus cuniculus, UniProt P00563); experiment: Phosphorylation by creatine kinase, coupled assay with pyruvate kinase and LDH; format: biochemical; conditions: 40 mM
# Sequence of creatine kinase (P00563 whole entry): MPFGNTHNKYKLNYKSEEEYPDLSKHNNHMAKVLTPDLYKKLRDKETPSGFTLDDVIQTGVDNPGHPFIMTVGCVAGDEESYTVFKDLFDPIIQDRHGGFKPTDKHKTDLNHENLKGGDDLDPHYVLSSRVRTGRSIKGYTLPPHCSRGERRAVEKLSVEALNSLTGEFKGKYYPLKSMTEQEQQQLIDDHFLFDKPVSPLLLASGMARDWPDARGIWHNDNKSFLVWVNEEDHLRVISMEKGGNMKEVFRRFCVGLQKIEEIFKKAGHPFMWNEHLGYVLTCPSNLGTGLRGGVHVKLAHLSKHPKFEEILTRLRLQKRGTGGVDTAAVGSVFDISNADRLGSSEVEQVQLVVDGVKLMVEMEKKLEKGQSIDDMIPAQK
# Method: Compound 5/6 (AM 361), where R=CH3, was prepared as described above and assayed for phosphorylation by creatine kinase in a coupled assay with pyruvate kinase and lactate dehydrogenase (LDH) as described (Bergmeyer, H. U., ed. (1974), In: Methods of Enzymatic Analysis, Second English Edition, Volume 4, (Verlag Chemie Weinheim and Academic Press, Inc.: New York, London) pp. 1772-1779). Each compound listed in Table 11 below was tested at a concentration of 40 mM. Compound 5/6 (AM 361) was slowly phosphorylated.
# [12] = in vivo; format: in vivo
# [13] = Phosphorylation of cyclocreatine in cultured cells
# [14] = system: Murine Cytomegalovirus (MCMV), strain Smith; experiment: Plaque reduction, murine cytomegalovirus in C127I cells; format: cell-based; conditions: Murid betaherpesvirus 1; 10 mg/ml
smiles,measurement,setting,value
"NC1=NCCN1CC(=O)O [cyclocreatine, 1-carboxymethyl-2-iminoimidazolidine]",CC50,[1],5790 µg/mL
same,# Plaques,[2]; AM 285 156.25 μg/ml,81
same,# Plaques,[2]; AM 285 312.5 μg/ml,65.5
same,# Plaques,[2]; AM 285 625 μg/ml,52.5
same,# Plaques,[2]; AM 285 1250 μg/ml,48.5
same,# Plaques,[2]; AM 285 2500 μg/ml,14.5
same,# Plaques,[2]; AM 285 5000 μg/ml,3.5
same,# Plaques,[2]; AM 285 10000 μg/ml,0
same,inhibition at 156.25 µg/mL,"[2]; Human betaherpesvirus 5, MRC5, AM 285 156.25 μg/ml, read-out: % Reduction",0%
same,inhibition at 312.5 µg/mL,"[2]; Human betaherpesvirus 5, MRC5, AM 285 312.5 μg/ml, read-out: % Reduction",28%
same,inhibition at 625 µg/mL,"[2]; Human betaherpesvirus 5, MRC5, AM 285 625 μg/ml, read-out: % Reduction",42%
same,inhibition at 1250 µg/mL,"[2]; Human betaherpesvirus 5, MRC5, AM 285 1250 μg/ml, read-out: % Reduction",47%
same,inhibition at 2500 µg/mL,"[2]; Human betaherpesvirus 5, MRC5, AM 285 2500 μg/ml, read-out: % Reduction",84%
same,inhibition at 5000 µg/mL,"[2]; Human betaherpesvirus 5, MRC5, AM 285 5000 μg/ml, read-out: % Reduction",96%
same,inhibition at 10000 µg/mL,"[2]; Human betaherpesvirus 5, MRC5, AM 285 10000 μg/ml, read-out: % Reduction",100%
same,EC50,"[2]; Human betaherpesvirus 5, MRC5, MRC-5 cells, Table 6, read-out: ED50 (the source's name)",900 µg/mL
same,TI50 (CD50 ÷ ED50),"[2]; MRC-5 cells, Table 6",> 11.1
same,CPE grade,[3],4.0
same,EC50,"[4]; Human alphaherpesvirus 2, Vero, read-out: ED50",1690 µg/mL and 11 mM
same,EC (60 or 70),"[4]; Human alphaherpesvirus 2, Vero, read-out: concentration required to inhibit cytopathogenicity by 60% or 70%",35000 µM
same,effect on cytopathic effect,[4]; contact-inhibited A459 cells,inhibited the cytopathic effect
same,effect on cytopathic effect,"[4]; contact-inhibited BalbC/3T3 cells, FIG. 4A",inhibited the cytopathic effect
same,effect on cytopathic effect,"[4]; serum-starved DU145 cells, FIG. 6A",inhibited the cytopathic effect
same,TI,[4]; serum-starved Vero cells,> 5.5
same,effect on cytopathic effect,"[4]; serum-starved Vero cells, FIG. 2A",inhibits the cytopathic effect
same,TI50 (CD50 ÷ ED50),"[5]; Hs-68 cells, Table 5",greater than 6.2
same,TI50 (CD50 ÷ ED50),"[5]; Hs-68 cells, Table 5, listed as AM-285",> 6.2
same,# Plaques,"[5]; Hs-68 cells, AM-285 62.5 μg/ml, virus control 74.2 ± 8.6",71
same,# Plaques,"[5]; Hs-68 cells, AM-285 125 μg/ml, virus control 74.2 ± 8.6",65
same,# Plaques,"[5]; Hs-68 cells, AM-285 260 μg/ml, virus control 74.2 ± 8.6",87
same,# Plaques,"[5]; Hs-68 cells, AM-285 500 μg/ml, virus control 74.2 ± 8.6",41
same,# Plaques,"[5]; Hs-68 cells, AM-285 1000 μg/ml, virus control 74.2 ± 8.6",19.5
same,# Plaques,"[5]; Hs-68 cells, AM-285 2000 μg/ml, virus control 74.2 ± 8.6",1.5
same,# Plaques,"[5]; Hs-68 cells, AM-285 4000 μg/ml, virus control 74.2 ± 8.6",0
same,inhibition at 260 µg/mL,"[5]; Human betaherpesvirus 5, AD169, Hs68, read-out: % Reduction",0%
same,EC50,"[5]; Human betaherpesvirus 5, AD169, Hs68, Hs-68 cells, Table 5",647 µg/mL
same,inhibition at 62.5 µg/mL,"[5]; Human betaherpesvirus 5, AD169, Hs68, Hs-68 cells, AM-285 62.5 μg/ml",0%
same,inhibition at 125 µg/mL,"[5]; Human betaherpesvirus 5, AD169, Hs68, Hs-68 cells, AM-285 125 μg/ml",0%
same,inhibition at 500 µg/mL,"[5]; Human betaherpesvirus 5, AD169, Hs68, Hs-68 cells, AM-285 500 μg/ml",45%
same,inhibition at 1000 µg/mL,"[5]; Human betaherpesvirus 5, AD169, Hs68, Hs-68 cells, AM-285 1000 μg/ml",74%
same,inhibition at 2000 µg/mL,"[5]; Human betaherpesvirus 5, AD169, Hs68, Hs-68 cells, AM-285 2000 μg/ml",98%
same,inhibition at 4000 µg/mL,"[5]; Human betaherpesvirus 5, AD169, Hs68, Hs-68 cells, AM-285 4000 μg/ml",100%
same,EC50,"[5]; Human betaherpesvirus 5, AD169, MRC5, MRC-5 cells, Table 4",610 µg/mL
same,inhibition at 62.5 µg/mL,"[5]; Human betaherpesvirus 5, AD169, MRC5, MRC-5 cells, AM 285 62.5 μg/ml",0%
same,inhibition at 125 µg/mL,"[5]; Human betaherpesvirus 5, AD169, MRC5, MRC-5 cells, AM 285 125 μg/ml",0%
same,inhibition at 250 µg/mL,"[5]; Human betaherpesvirus 5, AD169, MRC5, MRC-5 cells, AM 285 250 μg/ml",0%
same,inhibition at 500 µg/mL,"[5]; Human betaherpesvirus 5, AD169, MRC5, MRC-5 cells, AM 285 500 μg/ml",54%
same,inhibition at 1000 µg/mL,"[5]; Human betaherpesvirus 5, AD169, MRC5, MRC-5 cells, AM 285 1000 μg/ml",75%
same,inhibition at 2000 µg/mL,"[5]; Human betaherpesvirus 5, AD169, MRC5, MRC-5 cells, AM 285 2000 μg/ml",100%
same,inhibition at 4000 µg/mL,"[5]; Human betaherpesvirus 5, AD169, MRC5, MRC-5 cells, AM 285 4000 μg/ml",100%
same,TI50 (CD50 ÷ ED50),"[5]; MRC-5 cells, Table 4",greater than 6.5
same,TI50 (CD50 ÷ ED50),"[5]; MRC-5 cells, Table 4, listed as AM 285",> 6.5
same,# Plaques,"[5]; MRC-5 cells, AM 285 62.5 μg/ml, virus control 26.4 ± 5.2",25
same,# Plaques,"[5]; MRC-5 cells, AM 285 125 μg/ml, virus control 26.4 ± 5.2",26
same,# Plaques,"[5]; MRC-5 cells, AM 285 250 μg/ml, virus control 26.4 ± 5.2",23
same,# Plaques,"[5]; MRC-5 cells, AM 285 500 μg/ml, virus control 26.4 ± 5.2",12
same,# Plaques,"[5]; MRC-5 cells, AM 285 1000 μg/ml, virus control 26.4 ± 5.2",6
same,# Plaques,"[5]; MRC-5 cells, AM 285 2000 μg/ml, virus control 26.4 ± 5.2",0
same,# Plaques,"[5]; MRC-5 cells, AM 285 4000 μg/ml, virus control 26.4 ± 5.2",0
same,CC50,[6],> 28 mM
same,CD50,[6],greater than 4 mg/ml
same,EC50,"[7]; Human alphaherpesvirus 1, Vero, read-out: 50% effective dose (ED50)",1270 µg/mL and ~9 mM
same,IC20,"[7]; Human alphaherpesvirus 1, Vero, read-out: concentration required for ~20% inhibition",35 mM
same,EC65,"[7]; Human alphaherpesvirus 1, Vero, read-out: dose required to inhibit cytopathogenicity by 65%",35 mM
same,"effect on percent monolayer cell death, second set of experiments","[7]; Vero cells, 0-200 PFU, series of concentrations",consistent dose-dependent inhibition
same,dose response against cytopathogenicity,"[7]; Vero cells, 0.31-5.0 mg/ml, FIG. 16",shows a dose response
same,effect on cytopathic effect,"[7]; contact-inhibited A459 cells, FIG. 7A",inhibited the cytopathic effect
same,effect on cytopathic effect,"[7]; contact-inhibited BalbC/3T3 cells, FIG. 3A",inhibited the cytopathic effect
same,effect on cytopathic effect,"[7]; serum-starved DU145 cells, FIG. 5A",inhibited the cytopathic effect
same,therapeutic index,[7]; serum-starved Vero cells,> 7.6
same,effect on cytopathic effect,"[7]; serum-starved Vero cells, 0.71-4.0 mg/ml, FIG. 1A",inhibited the cytopathic effect
same,Average CPE,[8]; AM-285 62.5 μg/ml,3.2
same,Average CPE,[8]; AM-285 125 μg/ml,3.5
same,Average CPE,[8]; AM-285 260 μg/ml,3.2
same,Average CPE,[8]; AM-285 500 μg/ml,1.7
same,Average CPE,[8]; AM-285 1000 μg/ml,1.8
same,Average CPE,[8]; AM-285 2000 μg/ml,2.0
same,Average CPE,[8]; AM-285 4000 μg/ml,0.7
same,EC50,"[8]; read-out: ED50, Vero cells, Table 8",384 µg/mL
same,EC50,"[8]; read-out: ED50, as stated in text",~900 µg/mL and ~6.3 mM
same,TI50 (CD50 ÷ ED50),"[8]; Vero cells, Table 8",> 4.5
same,antiviral activity,[9],did not display significant antiviral activity
same,effect on plaquing efficiency,[10]; FIG. 9,reduced the plaquing efficiency
same,number of plaques,"[10]; second experiment, 4 mg/ml (755 at 0 mg/ml)",120
same,% Rate of Creatine,[11],46%
same,Δ in Absorbance/min,[11],0.54
same,tolerance in the diet,[12]; 1% in mouse chow,well-tolerated
same,tolerance in toxicity control,"[12]; cream topical, sham-infected mice",well-tolerated and caused no adverse effects to the vaginal area
same,survival,"[12]; mouse, in vivo, 1 %, read-out: Survivors/Total (%)",100%
same,Weight Change,"[12]; uninfected, AM-285 1% dietary, combined animal weights day 0 to day 15",7.8 g
same,metabolised,[13]; a2058 cells,13%
same,metabolised,[13]; du 145 cells,76%
same,metabolised,[13]; me180 cells,85%
same,metabolised,[13]; vero cells,68%
same,inhibition at 10000 µg/mL,[14],53%
